# Assay results published in paper PMC6572064, “Discovery of 2-(1-(3-(4-Chloroxyphenyl)-3-oxo- propyl)pyrrolidine-3-yl)-1H-benzo[d]imidazole-4-carboxamide: A Potent Poly(ADP-ribose) Polymerase (PARP) Inhibitor for Treatment of Cancer” (Molecules, 2019).
# Read-outs that look alike come from different tables or passages of the source.
# Experiments:
# [1] = biological target: T1, PARP-2 (Homo sapiens, UniProt Q9UGN5); test: PARP-2 inhibition assay (PARP-2 Chemiluminescent Assay Kit, BPS Bioscience); type: biochemical; settings: for inhibition at 0.01 µM: 10 nM compound
# T1 construct: purchased BPS Bioscience 80552
# Experimental: (§1) The PARP-1 and PARP-2 inhibition assays were performed in outsourcing, by a CRO company, Shanghai Medicilon Inc. (Shanghai, China). […] Briefly, PARP-1 or PARP-2 biotinylated substrate was incubated with compounds or solvent control at varying concentrations and an assay buffer containing the PARP-1 or PARP-2 enzyme.
# [2] = system: CAPAN-1 (a BRCA-2-mutated pancreatic cancer cell line); test: Cell proliferation assay, three-day, CellTiter-Glo, CAPAN-1; type: cell-based; settings: for IC50 / inhibition at 0.00508 µM / inhibition at 0.0152 µM / inhibition at 0.0457 µM / inhibition at […] / inhibition at 0.41 µM / inhibition at 1.23 µM / inhibition at 3.7 µM / inhibition at 11.11 µM / inhibition at 33.33 µM / inhibition at 100 µM: Homo sapiens; for IC50: CAPAN-1, 72 h, CellTiter-Glo, read-out: CAPAN-1 IC50; for inhibition at 0.0457 µM: CAPAN-1, 0.0457 uM; for inhibition at […]: CAPAN-1, 0.14 uM; for inhibition at 0.41 µM: CAPAN-1, 0.41 uM; for inhibition at 1.23 µM: CAPAN-1, 1.23 uM; for inhibition at 3.7 µM: CAPAN-1, 3.70 uM; for inhibition at 11.11 µM: CAPAN-1, 11.11 uM; for inhibition at 33.33 µM: CAPAN-1, 33.33 uM; for inhibition at 100 µM: CAPAN-1, 100.00 uM
# Procedure, shortened: (§2)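 Luminescent ATP read-out (CellTiter-Glo, 60 min at room temperature) quantified viability after a 72 h compound exposure at 37 °C, 5% CO2. Compounds, diluted from DMSO stocks into growth medium, were added to cells plated the previous day.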
# [3] = system: MDA-MB-436 (a BRCA-1-mutated breast cancer cell line); test: Cell proliferation assay, three-day, CellTiter-Glo, MDA-MB-436; type: cell-based; settings: Homo sapiens; for inhibition at 0.00508 µM: MDA-MB-436, MDA-MB-436, Conc. 0.00508 uM; for inhibition at 0.0152 µM: MDA-MB-436, MDA-MB-436, Conc. 0.0152 uM; for inhibition at 0.0457 µM: MDA-MB-436, MDA-MB-436, Conc. 0.0457 uM; for inhibition at 0.41 µM: MDA-MB-436, MDA-MB-436, Conc. 0.41 uM; for inhibition at 1.23 µM: MDA-MB-436, MDA-MB-436, Conc. 1.23 uM; for inhibition at 3.7 µM: MDA-MB-436, MDA-MB-436, Conc. 3.70 uM; for inhibition at 11.11 µM: MDA-MB-436, MDA-MB-436, Conc. 11.11 uM; for inhibition at 33.33 µM: MDA-MB-436, MDA-MB-436, Conc. 33.33 uM; for inhibition at 100 µM: MDA-MB-436, MDA-MB-436, Conc. 100.00 uM; for IC50: MDA-MB-436, 72 h, CellTiter-Glo, read-out: MDA-MB-436 IC50
# Procedure, shortened: as §2
# [4] = biological target: T2, PARP-1 (Homo sapiens, UniProt P09874); test: PARP-1 inhibition assay (PARP-1 Chemiluminescent Assay Kit, BPS Bioscience); type: biochemical; settings: for inhibition at 0.01 µM: 10 nM compound
# T2 construct: purchased BPS Bioscience 80569
# Experimental: as §1
# [5] = supplement sheet, read-out: 10 nM inhibition% PAPR-2
# [6] = read-out: PARP-2 Inhibition % (10 nM)
# [7] = supplement sheet, read-out: 10 nM inhibition% PAPR-1
# [8] = read-out: PARP-1 Inhibition % (10 nM)
# T2 sequence (P09874 whole entry): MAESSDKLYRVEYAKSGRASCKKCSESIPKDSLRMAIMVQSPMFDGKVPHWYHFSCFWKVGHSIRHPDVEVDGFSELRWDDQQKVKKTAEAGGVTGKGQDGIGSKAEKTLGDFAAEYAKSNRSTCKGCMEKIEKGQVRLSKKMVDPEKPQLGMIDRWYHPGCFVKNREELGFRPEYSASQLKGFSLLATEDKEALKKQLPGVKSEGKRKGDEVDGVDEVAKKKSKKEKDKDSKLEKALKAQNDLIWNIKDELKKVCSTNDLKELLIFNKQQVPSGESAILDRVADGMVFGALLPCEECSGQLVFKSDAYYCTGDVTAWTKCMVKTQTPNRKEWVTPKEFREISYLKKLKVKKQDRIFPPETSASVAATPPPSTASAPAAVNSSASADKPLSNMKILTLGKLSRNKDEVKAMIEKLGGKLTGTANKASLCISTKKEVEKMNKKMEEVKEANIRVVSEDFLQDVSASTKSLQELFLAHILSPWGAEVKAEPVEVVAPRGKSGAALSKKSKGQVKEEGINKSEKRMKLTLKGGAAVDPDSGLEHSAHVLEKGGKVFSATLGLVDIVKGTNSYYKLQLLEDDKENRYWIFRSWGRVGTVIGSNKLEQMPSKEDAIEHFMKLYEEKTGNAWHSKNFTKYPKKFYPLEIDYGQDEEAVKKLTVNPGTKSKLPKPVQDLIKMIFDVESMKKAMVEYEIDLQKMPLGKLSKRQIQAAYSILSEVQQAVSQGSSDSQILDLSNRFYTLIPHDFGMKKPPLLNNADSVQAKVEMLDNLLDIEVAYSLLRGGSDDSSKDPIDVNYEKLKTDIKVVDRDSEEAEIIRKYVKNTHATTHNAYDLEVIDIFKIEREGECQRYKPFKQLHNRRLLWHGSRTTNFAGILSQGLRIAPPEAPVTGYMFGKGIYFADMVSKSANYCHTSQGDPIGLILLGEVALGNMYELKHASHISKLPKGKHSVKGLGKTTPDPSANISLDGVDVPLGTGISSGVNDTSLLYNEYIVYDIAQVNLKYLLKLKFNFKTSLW
# T1 sequence (Q9UGN5 whole entry): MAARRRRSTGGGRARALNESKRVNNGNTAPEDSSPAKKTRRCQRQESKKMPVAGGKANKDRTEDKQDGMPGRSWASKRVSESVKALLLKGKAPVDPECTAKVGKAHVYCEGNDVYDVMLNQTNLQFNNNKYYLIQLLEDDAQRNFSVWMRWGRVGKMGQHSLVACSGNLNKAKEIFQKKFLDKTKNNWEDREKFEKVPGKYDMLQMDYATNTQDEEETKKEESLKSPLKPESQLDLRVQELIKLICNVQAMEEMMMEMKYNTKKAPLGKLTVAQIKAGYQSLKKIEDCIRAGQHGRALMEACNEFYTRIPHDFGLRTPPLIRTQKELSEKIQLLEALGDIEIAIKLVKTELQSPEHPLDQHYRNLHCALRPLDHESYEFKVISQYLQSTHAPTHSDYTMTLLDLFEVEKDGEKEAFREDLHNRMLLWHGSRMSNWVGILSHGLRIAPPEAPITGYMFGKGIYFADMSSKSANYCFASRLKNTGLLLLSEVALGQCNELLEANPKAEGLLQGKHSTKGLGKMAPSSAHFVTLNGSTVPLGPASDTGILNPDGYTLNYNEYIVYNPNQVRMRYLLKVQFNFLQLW
smiles,measurement,setting,value
"NC(=O)c1cccc2[nH]c(C3CCN(CCCNc4ccccc4)C3)nc12 (stereo not drawn) [Compound 5ch, 2-(1-(3-(Phenylamino)propyl)pyrrolidin-3-yl)-1H-benzo[d]imidazole-4-carboxamide]",inhibition at 0.01 µM,[1]; [5],66.2%
same,inhibition at 0.01 µM,[1]; [6],66.2%
same,IC50,[1]; read-out: PARP-2 IC50,3.3 nM
same,IC50,"[1]; supplement sheet, read-out: IC50 PAPR-2",3.33 nM
same,LogIC50,"[2]; CAPAN-1, curve-fit output, Log (uM)",2.153
same,IC50,[2],> 100 µM
same,inhibition at 0.00508 µM,"[2]; CAPAN-1, 0.00508 uM, replicate 1, read-out: Inh % 1",2.8%
same,inhibition at 0.00508 µM,"[2]; CAPAN-1, 0.00508 uM, replicate 2, read-out: Inh % 2",-6.9%
same,inhibition at 0.0152 µM,"[2]; CAPAN-1, 0.0152 uM, replicate 1, read-out: Inh % 1",3.5%
same,inhibition at 0.0152 µM,"[2]; CAPAN-1, 0.0152 uM, replicate 2, read-out: Inh % 2",0.5%
same,inhibition at 0.0457 µM,"[2]; replicate 1, read-out: Inh % 1",5%
same,inhibition at 0.0457 µM,"[2]; replicate 2, read-out: Inh % 2",0.2%
same,inhibition at […],"[2]; replicate 1, read-out: Inh % 1",-1.8%
same,inhibition at […],"[2]; replicate 2, read-out: Inh % 2",-3%
same,inhibition at 0.41 µM,"[2]; replicate 1, read-out: Inh % 1",6.4%
same,inhibition at 0.41 µM,"[2]; replicate 2, read-out: Inh % 2",6.3%
same,inhibition at 1.23 µM,"[2]; replicate 1, read-out: Inh % 1",-2.4%
same,inhibition at 1.23 µM,"[2]; replicate 2, read-out: Inh % 2",-3.6%
same,inhibition at 3.7 µM,"[2]; replicate 1, read-out: Inh % 1",7.7%
same,inhibition at 3.7 µM,"[2]; replicate 2, read-out: Inh % 2",10.2%
same,inhibition at 11.11 µM,"[2]; replicate 1, read-out: Inh % 1",2.2%
same,inhibition at 11.11 µM,"[2]; replicate 2, read-out: Inh % 2",3%
same,inhibition at 33.33 µM,"[2]; replicate 1, read-out: Inh % 1",29.9%
same,inhibition at 33.33 µM,"[2]; replicate 2, read-out: Inh % 2",20.6%
same,inhibition at 100 µM,"[2]; replicate 1, read-out: Inh % 1",46.6%
same,inhibition at 100 µM,"[2]; replicate 2, read-out: Inh % 2",35.5%
same,inhibition at 0.00508 µM,"[3]; replicate 1, read-out: Inh % 1",-7%
same,inhibition at 0.00508 µM,"[3]; replicate 2, read-out: Inh % 2",-8.2%
same,inhibition at 0.0152 µM,"[3]; replicate 1, read-out: Inh % 1",-3%
same,inhibition at 0.0152 µM,"[3]; replicate 2, read-out: Inh % 2",-8%
same,inhibition at 0.0457 µM,"[3]; replicate 1, read-out: Inh % 1",-14.2%
same,inhibition at 0.0457 µM,"[3]; replicate 2, read-out: Inh % 2",-14.8%
same,inhibition at 0.41 µM,"[3]; replicate 1, read-out: Inh % 1",-13.7%
same,inhibition at 0.41 µM,"[3]; replicate 2, read-out: Inh % 2",-16%
same,inhibition at 1.23 µM,"[3]; replicate 1, read-out: Inh % 1",-13.7%
same,inhibition at 1.23 µM,"[3]; replicate 2, read-out: Inh % 2",-10.6%
same,inhibition at 3.7 µM,"[3]; replicate 1, read-out: Inh % 1",-16.2%
same,inhibition at 3.7 µM,"[3]; replicate 2, read-out: Inh % 2",-4.5%
same,inhibition at 11.11 µM,"[3]; replicate 1, read-out: Inh % 1",-9.3%
same,inhibition at 11.11 µM,"[3]; replicate 2, read-out: Inh % 2",-8.6%
same,inhibition at 33.33 µM,"[3]; replicate 1, read-out: Inh % 1",3.2%
same,inhibition at 33.33 µM,"[3]; replicate 2, read-out: Inh % 2",-1.4%
same,inhibition at 100 µM,"[3]; replicate 1, read-out: Inh % 1",39.9%
same,inhibition at 100 µM,"[3]; replicate 2, read-out: Inh % 2",37.2%
same,IC50,[3],> 100 µM
same,inhibition at 0.01 µM,[4]; [7],47.5%
same,inhibition at 0.01 µM,[4]; [8],47.5%
same,IC50,[4]; read-out: PARP-1 IC50,7.1 nM
same,IC50,"[4]; supplement sheet, read-out: IC50 PAPR-1",7.14 nM
"NC(=O)c1cccc2[nH]c(C3CCN(CCN4C(=O)c5ccccc5C4=O)C3)nc12 (stereo not drawn) [Compound 5ck, 2-(1-(2-(1,3-Dioxoisoindolin-2-yl)ethyl)pyrrolidin-3-yl)-1H-benzo[d]imidazole-4-carboxamide]",inhibition at 0.01 µM,[1]; [5],37.1%
same,inhibition at 0.01 µM,[1]; [6],37.1%
same,IC50,[2],> 100 µM
same,inhibition at 0.0457 µM,"[2]; replicate 1, read-out: Inh % 1",-1.5%
same,inhibition at 0.0457 µM,"[2]; replicate 2, read-out: Inh % 2",-9.2%
same,inhibition at […],"[2]; replicate 1, read-out: Inh % 1",8.7%
same,inhibition at […],"[2]; replicate 2, read-out: Inh % 2",-3.2%
same,inhibition at 0.41 µM,"[2]; replicate 1, read-out: Inh % 1",9%
same,inhibition at 0.41 µM,"[2]; replicate 2, read-out: Inh % 2",-5.8%
same,inhibition at 1.23 µM,"[2]; replicate 1, read-out: Inh % 1",3.9%
same,inhibition at 1.23 µM,"[2]; replicate 2, read-out: Inh % 2",-9.8%
same,inhibition at 3.7 µM,"[2]; replicate 1, read-out: Inh % 1",1.2%
same,inhibition at 3.7 µM,"[2]; replicate 2, read-out: Inh % 2",2.6%
same,inhibition at 11.11 µM,"[2]; replicate 1, read-out: Inh % 1",-2.3%
same,inhibition at 11.11 µM,"[2]; replicate 2, read-out: Inh % 2",-4.3%
same,inhibition at 33.33 µM,"[2]; replicate 1, read-out: Inh % 1",6.8%
same,inhibition at 33.33 µM,"[2]; replicate 2, read-out: Inh % 2",4.4%
same,inhibition at 100 µM,"[2]; replicate 1, read-out: Inh % 1",-2.5%
same,inhibition at 100 µM,"[2]; replicate 2, read-out: Inh % 2",-5.6%
same,inhibition at 0.00508 µM,"[2]; CAPAN-1, Conc. 0.00508 uM, replicate 1, read-out: Inh % 1",2.6%
same,inhibition at 0.00508 µM,"[2]; CAPAN-1, Conc. 0.00508 uM, replicate 2, read-out: Inh % 2",0.639%
same,inhibition at 0.0152 µM,"[2]; CAPAN-1, Conc. 0.0152 uM, replicate 1, read-out: Inh % 1",6.1%
same,inhibition at 0.0152 µM,"[2]; CAPAN-1, Conc. 0.0152 uM, replicate 2, read-out: Inh % 2",-0.5%
same,inhibition at 0.00508 µM,"[3]; replicate 1, read-out: Inh % 1",-0.108%
same,inhibition at 0.00508 µM,"[3]; replicate 2, read-out: Inh % 2",-3.8%
same,inhibition at 0.0152 µM,"[3]; replicate 1, read-out: Inh % 1",-3.1%
same,inhibition at 0.0152 µM,"[3]; replicate 2, read-out: Inh % 2",-1.8%
same,inhibition at 0.0457 µM,"[3]; replicate 1, read-out: Inh % 1",-9.3%
same,inhibition at 0.0457 µM,"[3]; replicate 2, read-out: Inh % 2",-11.9%
same,inhibition at 0.41 µM,"[3]; replicate 1, read-out: Inh % 1",-11%
same,inhibition at 0.41 µM,"[3]; replicate 2, read-out: Inh % 2",-21.7%
same,inhibition at 1.23 µM,"[3]; replicate 1, read-out: Inh % 1",-18.8%
same,inhibition at 1.23 µM,"[3]; replicate 2, read-out: Inh % 2",-14.6%
same,inhibition at 3.7 µM,"[3]; replicate 1, read-out: Inh % 1",-15.1%
same,inhibition at 3.7 µM,"[3]; replicate 2, read-out: Inh % 2",-12.2%
same,inhibition at 11.11 µM,"[3]; replicate 1, read-out: Inh % 1",-14.1%
same,inhibition at 11.11 µM,"[3]; replicate 2, read-out: Inh % 2",-10%
same,inhibition at 33.33 µM,"[3]; replicate 1, read-out: Inh % 1",-6.4%
same,inhibition at 33.33 µM,"[3]; replicate 2, read-out: Inh % 2",-12%
same,inhibition at 100 µM,"[3]; replicate 1, read-out: Inh % 1",-8.9%
same,inhibition at 100 µM,"[3]; replicate 2, read-out: Inh % 2",-13.6%
same,IC50,[3],> 100 µM
same,inhibition at 0.01 µM,[4]; [7],6.02%
same,inhibition at 0.01 µM,[4]; [8],6%
